These results are taken from patent US20260034121A1, “COMPOSITIONS AND METHODS FOR ALPHA-SYNUCLEIN FIBRIL GROWTH INHIBITION” (Washington University, priority 2024, published 2026).

In this test the target is T1, aSyn fibril growth (in vitro aSyn fibrils) (Homo sapiens, UniProt P37840).
T1 construct: made in house; host or cells: E. coli BL21-CodonPlus (DE3)-RIL, pRK172 plasmid
Briefly: FlAsH fluorescence fibril growth assay with in vitro assembled aSyn fibril seeds. Format: biochemical. An excerpt: Inhibition of fibril growth by small molecule compounds is likely to be mediated primarily by binding interactions with either monomer, fibrils, or both. However, secondary nucleation may occur and contribute to fibril growth under some conditions, and compounds may affect growth through interaction with oligomeric intermediates to inhibit conversion to fibrils. In one proposed mechanism, a compound binds to the end surface of fibrils and interferes with the binding of the new monomer required to extend the seed or fibril (FIG. 1). Since binding will deplete the free concentration of the inhibitor, measured IC50 values will be proportional to the concentration of the binding target (fibril seeds) and proportional to the concentration of monomer, with which the inhibitor competes for binding.
The fibril growth assay was performed similarly to previously published methods. […] Maximum inhibition is calculated as (Intensity100μM−Intensity0μM)/Intensity0μM×100% where Intensity100μM and Intensity0μM is the intensity at 100 μM of compound and intensity with no compound in the presence of fibrils and monomers.

On to `CCOC(=O)C1CCN(Cc2cc(OC)c(O)c(OC)c2)CC1` [Compound 1, ethyl 1-[(4-hydroxy-3,5-dimethoxyphenyl)methyl]piperidine-4-carboxylate], for which the inhibition at 100 µM (at 100 μM compound versus no compound, read-out: Max Inhibition [%] [mean ± std]) is 79%. Where the note is “read-out: IC50 [95% Cl] [μM] [mean ± std], 1 μM fibril seeds, 3 μM C2-aSyn monomer, 3-hour incubation”, the IC50 is 18 µM.
